Assays:
[1] = test system: PD-L1 in 4T1, E0771, MC38 tumors; test: Intratumoral PD-L1 immunofluorescence in engrafted 4T1, E0771 and MC38 tumors; type: in vivo, mice; settings: LEM 0.25 mg/kg every other day for 5 doses; two days after final dose
[2] = test system: E0771 tumor microenvironment; test: Flow cytometry of dissociated E0771 tumors (tumor cells, myeloid cells, TILs); type: in vivo, C57BL/6 mice
MC38 tumor = MC38 tumor growth in mice; type: in vivo; settings: echinomycin 0.15 mg/kg
Description: FIGS. 3A-D show the therapeutic effects of echinomycin on tumor growth in immunodeficient and immunocompetent mice. FIG. 3A. Experimental design. Three murine tumor lines were tested: 4T1, E0771, or MC38. For each, immunodeficient and immunocompetent mice were inoculated (day 0), and treatment was initiated with control liposomes (vehicle) or echinomycin liposomes (LEM) on day 6, indicated by arrows in FIGS. 3B-3D. The kinetics of tumor growth were compared to deduce the role of adaptive immunity in the therapeutic effects of echinomycin. FIG. 3B. 4T1 cells (1×10^6) were transplanted into mammary fat pad of NSG and BALB/c mice, which received vehicle or echinomycin (0.15 mg/kg) (arrows). Mean tumor volumes±SEM are shown for one of two independent experiments (n=10/group). FIG. 3C. Kinetics of E0771 tumor growth. E0771 cells (0.7×10^6) were transplanted into mammary fat pad of NSG and C57BL/6 mice, which received vehicle or echinomycin (0.25 mg/kg) (arrows). Mean tumor volumes±SEM are shown for one of two independent experiments (n=5/group). FIG. 3D. Kinetics of MC38 tumor growth. […]
Tumor Models The details of each experiment are specified in the figure legends. […] Tumor volumes were calculated and reported based on the formula […], where a is the longer diameter, and b is the shorter diameter. […]

[3] = test system: PD-L1 expression in E0771 cells; type: cell-based, murine
[4] = test system: PD-L1 expression in 4T1 cells; test: PD-L1 expression in 4T1 cells by flow cytometry; type: cell-based, murine; settings: normoxia, echinomycin 0.45 nM, 48 hours
leukemia stem cells = settings: Wang et al., 2011; cited from earlier work
[5] = Tolerability and LD50 of intravenous echinomycin in mice; settings: mouse, in vivo

CSC1SC[C@H]2C(=O)N(C)[C@@H](C(C)C)C(=O)OC[C@@H](NC(=O)c3cnc4ccccc4n3)C(=O)N[C@@H](C)C(=O)N(C)[C@@H]1C(=O)N(C)[C@@H](C(C)C)C(=O)OC[C@@H](NC(=O)c1cnc3ccccc3n1)C(=O)N[C@@H](C)C(=O)N2C (stereo in doubt) [echinomycin, N,N′-(2,4,12,15,17,25-hexamethyl-11,24-bis(1-methylethyl)-27-(methylthio)-3,6,10,13,16,19,23,26-octaoxo-9,22-dioxa-28-thia-2,5,12,15,18,25-hexaazabicyclo(12.12.3)nonacosane-7,20-diyl)bis(2-quinoxalinecarboxamide)]
intratumoral PD-L1 expression (immunofluorescence) [1]: marked reduction in PD-L1 expression
inhibition of PD-L1 on tumor cells in mice with conditional knockout of Hif1α in T cells ([2]; Hif1α conditional knockout in T lineages): preserved
CD3 TIL infiltration into hypoxic areas of the tumors ([2]; echinomycin-treated mice): increase in CD3 TIL infiltration into hypoxic areas
MC38 tumor growth, combination study (MC38 tumor; C57BL/6, mAbs 0.2 mg/mouse/injection, vs vehicle): significant inhibition of tumor growth
MC38 tumor growth (MC38 tumor; C57BL/6 vs NSG): all therapeutic effects required immune competence
PD-L1 expression in sh-Hif1α E0771 cells [3]: abrogated the ability for echinomycin to decrease PD-L1 protein
PD-L1 protein ([3]; E0771 cells, normoxia, echinomycin 0.45 nM, 48 hours): reduced PD-L1 protein
PD-L1 expression in sh-Scr E0771 cells ([3]; scrambled shRNA, echinomycin 1.35 nM): inhibitory effect of echinomycin on PD-L1 expression was preserved
PD-L1 protein [4]: reduced PD-L1 protein
elimination of leukemia stem cells (leukemia stem cells): effectively eliminated leukemia stem cells
LD50 [5]: 0.629 mg/kg

— patent US20240139280A1, “USE OF HIF-1-ALPHA INHIBITORS IN CANCER IMMUNOTHERAPY” (ONCOC4, INC., priority 2021, published 2024)
